Measured values as given in article PMC10587169, “Tuning aminopolycarboxylate chelators for efficient complexation of trivalent actinides” (Scientific Reports, 2023).
Read-outs that look alike come from different tables or passages of the source. Marks after values point to notes of the source that are not given here.

How the values were obtained:
[1] = Potentiometric titration, acid dissociation constants; assay type: physicochemical; settings: aqueous 2.0 M (Na+/H+)ClO4 electrolyte solution
Description: All potentiometric titrations were run using a Mettler Toledo T90 autotitrator equipped with an Orion Ross Semi-micro glass electrode with the junction stabilization solution changed to 5.0 M NaCl to prevent precipitation with perchlorate media. All titrations were performed under a hydrated nitrogen atmosphere. The forward titration measurements (acidic titrand, basic titrant) of H4octapa in nitrate electrolyte medium were performed as described previously due to the limited solubility of this ligand in a 2 M (Na^+/H^+)ClO4 medium. Acid dissociation constants of H4octapa in perchlorate electrolyte medium were also determined by titrating in reverse (basic titrand, acidic titrant) to alleviate the solubility concerns. Titrations of H4pypa-peg were performed in reduced-volume glass titration cups (10 mL nominal) due to the limited supply of this ligand. All potentiometric titrations were run in triplicate. The choice of using p[H^+] was explained in Heathman et al.[15], and the calibration of the p[H^+] scale utilized Gran analysis through titration of a strong acid with the base used in the potentiometric titrations[29]–[31]. Potentiometric titration data was modeled and analyzed using Hyperquad2013 to determine acid dissociation and metal complexation stability constants[32],[33].
Changes in hydrogen ion concentration were monitored using a glass electrode for a solution of H4octapa as either NaOH or HClO4 were titrated into the solutions. […] The experimental potentiometric curve collected for a forward titration of H4octapa in (Na^+/H^+)NO3 is presented in Fig. 3A, alongside the distribution curves for the identified HnL species. Following those studies, the acid/base conditions were reversed and octapa^4− was titrated in 2.0 M (Na^+/H^+)ClO4 using HClO4 (SI Figure S7). The potentiometric curves are well respresented by five proton dissociation equilibria. The calculated equilibrium constants correspond with the protonation reactions for two aliphatic amines, two pyridine nitrogens, and one carboxylate group with the protonation sequence described by Eq. (2). The acid dissociation constants (pKa = − log10Ka) for H4octapa are reported in Table 1 alongside previously reported values in the literature.
The experimental potentiometric titration curve and the distribution curves for the associated HnL species for H4pypa-peg are presented in Fig. 3B. […] For comparison, the protonation equilibria of H4edta were also studied in 2.0 M (Na^+/H^+)ClO4. The pKa values for H4edta are listed in Table 2 and collected potentiometric titration curves (forward and reverse) are presented in SI Figure S8. For H4pypa-peg coordination pocket the protonation of H9L^5+, H7L^3+, and H6L^2+ cannot be characterized using a glass electrode. The H6L^2+ species likely represents a protonated carboxylate group, while H5L^+ and H4L may describe the pyridinecarboxylate nitrogens. The equilibrium involving H3L^− likely describes the dissociation of the protonated pyridine nitrogen, while the two most basic species in this ligand (HL^3− and H2L^2−) are likely the bridging amines in the H4pypa-peg backbone. Equation (3) describes the protonation sequence for H4pypa-peg.3 H10-aL^+6-a⇆H9-aL^+5-a+H^+Ka=H^+·H9-aL^+5-a/H10-aL^+6-aa=1…9

[2] = Spectrophotometric titration; assay type: binding; settings: spectrophotometrically determined in 2.0 M (Na+/H+)ClO4, 20 °C
Description: Changes in the optical absorption characteristics of Nd^3+ were monitored using a Cary 6000i UV/Vis–NIR Spectrometer (Agilent) using 1 cm semimicro quartz cuvettes (Starna) in double-beam mode, where the ^4I9/2 → ^4G5/2, ^2G7/2 transitions[34] were monitored between 560 and 605 nm with a 0.075 nm interval and 1.0 nm spectral bandwidth. Changes in the optical absorption characteristics of ^243Am^3+ and ^248Cm^3+ were monitored using a Flame-S-VIS–NIR-ES spectrometer coupled to a DH-2000-BAL dual-mode light source (Ocean Optics) with a single 1 cm semimicro quartz cuvette (Starna). The light source and spectrometer were optically coupled to the CUV sample (Ocean Optics) holder using 2 m fiberoptics (200 μm) and the parameters for acquisition were 0.369 nm interval and 1000 scans averaged with an integration time/scan 1.08 ms (total acquisition time ~ 1 s). The complexation of Am^3+ with the ligands was monitored in the 495–525 nm spectral region, looking at the ^7F0′ → ^5L6′ transition[23],[35]. For Cm^3+, ligand complexation was monitored in the 365–410 nm spectral region, looking at the ^8S7/2 → ^2Ji (i = {15}, {13,9}, {11,17}) manifold transitions[24],[25],[36]. Changes in aqueous p[H^+] were monitored throughout each titration step using a Gran-calibrated Orion Ross Semi-micro glass electrode. Baseline correction was applied to all datasets and was typically a simple linear subtraction. However, in the case of the ^248Cm/H4pypa-peg spectra, the tail end of the ligand absorption overlapped the hypersensitive Cm peaks. In this case the background correction was applied using a 5th-order empirical polynomial. Finally, the spectroscopic data was analyzed using the HypSpec software package[33],[37]. Full details of the titrand and titrant solutions for each titration are included in the Supplemental Information.
The coordination of Nd^3+ by H4octapa and H4pypa-peg was also studied using spectroscopic methods. Figures 5A, B show the collected spectrophotometric signatures for H4octapa and H4pypa-peg, respectively.4 M^3++L^4-⇆ML^-β101=ML^-/[M^3+]L^4- 5 M^3++H^++L^4-⇆MHLaqβ111=MHLaq/[M^3+L^4-H^+]
Optical absorption features of ^4I9/2 → ^4G5/2, ^2G7/2 transitions for Nd^3+ are perturbed due to the introduction of increasing quantities of complexants, resulting in characteristic red-shifted changes. In Fig. 5A a broad absorption band with λmax = 577 nm is distinctly different to the optical absorption of free Nd^3+ metal in Fig. 5B. The differences can be attributed to the nitrate complexation of Nd^3+ as the spectrophotometric titration with H4octapa was performed in 2.0 M (Na^+/H^+)NO3. […] The HypSpec interpretation of the Nd/pypa-peg titration points to the presence of three absorbing species: Nd^3+, NdHL(aq), and NdL^−. The conditional stability constants obtained spectroscopically are listed in Table 3, showing good agreement with the stability constants determined using potentiometry. The complex stability constants for structurally similar APC ligands found in the literature are also presented (H4pypa[18] and H4py4pa[57]).
2. Spectrophotometric titration parameters
Nd3+: The titrand solution consisting of 1.980 mL of 7.57 mM Nd(ClO4)3 at p[H+] = 1.61 was blended with 1.965 mL of titrant solution containing 7.62 mM Nd3+, 18.57 mM H4octapa, […]
Am3+: The titrand solution consisting of 0.842 mL of 0.810 mM Am(ClO4)3 at p[H+] =1.66 was blended with 0.811 mL of titrant solution containing 0.815 mM Am3+, 8.95 mM H4octapa, at p[H+] ≈ 5.0 – 6.0.
Nd3+: The titrand solution consisting of 0.801 mL of 9.82 mM Nd(ClO4)3 at p[H+] = 1.61 was blended with 1.176 mL of titrant solution containing 9.91 mM Nd3+ and 24.58 mM H4pypa-peg in with p[H+] ≈ 3.0 – 4.0.
Am3+: The titrand solution consisting of 0.806 mL of 0.791 mM Am(ClO4)3 at p[H+] = 1.41 was blended with 0.787 mL of titrant solution containing 0.801 mM Am3+ and 15.09 mM H4pypa-peg at p[H+] ≈ 5 – 6.
Cm3+: The titrand solution consist ing of 0.809 mL of 1.00 mM Cm(ClO4)3 at p[H+] = 1.34 was […]

[3] = Stability constants reported in literature; assay type: binding; settings: across the lanthanide series
[4] = I = 0.16 M NaCl, uncertainties 1σ; cited from earlier work
[5] = cited from earlier work
[6] = cited from earlier work; remark: listed apart in the source
[7] = in-batch spectrophotometric competition at 25 °C, not evaluated at constant I = 0.16 M NaCl
[8] = potentiometric titrations, I = 0.16 M NaCl, uncertainties 1σ

O=C(O)CN(CCN(CC(=O)O)CC(=O)O)CC(=O)O [H4edta, ethylenediamine-N,N,N′,N′-tetraacetic acid] showed a pKa ([1]; I = 2.0 M (Na+/H+)ClO4 (Table 2), read-out: pKa H2L2-) of 6.23, a pKa ([1]; I = 2.0 M (Na+/H+)ClO4 (Table 2), read-out: pKa H3L-) of 2.48 and a pKa ([1]; I = 2.0 M (Na+/H+)ClO4 (Table 2), read-out: pKa H4L(aq)) of 2.08. The pKa ([1]; I = 2.0 M (Na+/H+)ClO4 (Table 2), read-out: pKa HL3-) was 8.71, the pKa ([1]; I = 2.0 M (Na+/H+)ClO4 at 20.0 °C, read-out: pKa H2L species) was 6.45 and the pKa ([1]; I = 2.0 M (Na+/H+)ClO4 at 20.0 °C, read-out: pKa H3L species) was 2.49. For the same compound, the pKa ([1]; I = 2.0 M (Na+/H+)ClO4 at 20.0 °C, read-out: pKa H4L species) was 2.02, the pKa ([1]; I = 2.0 M (Na+/H+)ClO4 at 20.0 °C, read-out: pKa HL species) was 8.81 and the “logβ101 (ML), Nd” value [2] was 14.66(1).
For O=C(O)CN(Cc1cccc(CN(CC(=O)O)Cc2cccc(C(=O)O)n2)n1)Cc1cccc(C(=O)O)n1 [H4pypa], the “cross-lanthanide stability increase for ML- complexes” value [3] is listed as 1000 fold, the “pKa H2L2-” value [4] is listed as 6.78 (1) and the “pKa H3L-” value [4] is listed as 3.69 (1). For the same compound, the “pKa H4L(aq)” value [4] was 3.02 (1), the “pKa H5L+” value [4] was 2.23 (2) and the “pKa H6L2+” value [4] was 2.06 (6). For the same compound, the “pKa H7L3+” value [4] was 1.70 (2), the “pKa HL3-” value [4] was 7.78 (1) and the “logK111, La” value [5, 7] was 3.24 (5)*. For the same compound, the “logβ101 (ML), La” value [5, 8] was 19.54 (2), the “logK111, Lu” value [6, 7] was 3.60 (6)* and the “logβ101 (ML), Lu” value [6, 8] was 22.20 (2).
